{"source": "patent US8796314B2", "about": "“Heteroaryls and uses thereof” (Millennium Pharmaceuticals, Inc., priority 2009, dated 2014)", "target": "T1, PI3Kalpha (Homo sapiens, UniProt P42336)", "T1 construct": "His (N); host or cells: SF9 insect cells (baculovirus)", "T1 sequence (P42336 whole entry, the tested form may be a part)": "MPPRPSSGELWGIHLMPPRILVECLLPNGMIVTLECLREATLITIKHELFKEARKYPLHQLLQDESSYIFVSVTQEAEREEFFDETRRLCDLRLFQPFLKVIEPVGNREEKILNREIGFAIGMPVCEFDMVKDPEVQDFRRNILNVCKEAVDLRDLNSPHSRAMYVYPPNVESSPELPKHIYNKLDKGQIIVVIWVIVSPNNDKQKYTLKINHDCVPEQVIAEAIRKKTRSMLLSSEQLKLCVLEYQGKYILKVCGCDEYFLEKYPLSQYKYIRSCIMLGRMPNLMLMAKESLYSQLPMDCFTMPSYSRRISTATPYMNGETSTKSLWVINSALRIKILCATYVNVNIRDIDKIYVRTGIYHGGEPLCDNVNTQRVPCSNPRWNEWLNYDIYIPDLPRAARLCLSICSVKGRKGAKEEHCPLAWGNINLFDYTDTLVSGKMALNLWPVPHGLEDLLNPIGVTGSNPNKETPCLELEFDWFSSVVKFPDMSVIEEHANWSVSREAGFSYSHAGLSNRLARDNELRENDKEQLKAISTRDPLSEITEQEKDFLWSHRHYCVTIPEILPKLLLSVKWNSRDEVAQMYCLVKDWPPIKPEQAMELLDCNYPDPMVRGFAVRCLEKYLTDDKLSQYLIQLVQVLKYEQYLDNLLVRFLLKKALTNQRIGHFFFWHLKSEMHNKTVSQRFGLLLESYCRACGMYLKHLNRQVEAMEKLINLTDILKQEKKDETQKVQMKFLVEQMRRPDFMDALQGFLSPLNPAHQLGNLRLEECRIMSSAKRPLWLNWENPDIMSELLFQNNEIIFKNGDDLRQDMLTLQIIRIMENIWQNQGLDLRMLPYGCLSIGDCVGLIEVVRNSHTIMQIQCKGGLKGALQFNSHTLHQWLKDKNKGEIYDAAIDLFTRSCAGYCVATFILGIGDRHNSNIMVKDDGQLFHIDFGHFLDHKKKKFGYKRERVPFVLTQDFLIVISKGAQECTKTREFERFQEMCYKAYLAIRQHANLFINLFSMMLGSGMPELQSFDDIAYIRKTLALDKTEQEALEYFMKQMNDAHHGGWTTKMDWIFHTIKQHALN", "T1 sequence (P27986 whole entry partner, the tested form may be a part)": "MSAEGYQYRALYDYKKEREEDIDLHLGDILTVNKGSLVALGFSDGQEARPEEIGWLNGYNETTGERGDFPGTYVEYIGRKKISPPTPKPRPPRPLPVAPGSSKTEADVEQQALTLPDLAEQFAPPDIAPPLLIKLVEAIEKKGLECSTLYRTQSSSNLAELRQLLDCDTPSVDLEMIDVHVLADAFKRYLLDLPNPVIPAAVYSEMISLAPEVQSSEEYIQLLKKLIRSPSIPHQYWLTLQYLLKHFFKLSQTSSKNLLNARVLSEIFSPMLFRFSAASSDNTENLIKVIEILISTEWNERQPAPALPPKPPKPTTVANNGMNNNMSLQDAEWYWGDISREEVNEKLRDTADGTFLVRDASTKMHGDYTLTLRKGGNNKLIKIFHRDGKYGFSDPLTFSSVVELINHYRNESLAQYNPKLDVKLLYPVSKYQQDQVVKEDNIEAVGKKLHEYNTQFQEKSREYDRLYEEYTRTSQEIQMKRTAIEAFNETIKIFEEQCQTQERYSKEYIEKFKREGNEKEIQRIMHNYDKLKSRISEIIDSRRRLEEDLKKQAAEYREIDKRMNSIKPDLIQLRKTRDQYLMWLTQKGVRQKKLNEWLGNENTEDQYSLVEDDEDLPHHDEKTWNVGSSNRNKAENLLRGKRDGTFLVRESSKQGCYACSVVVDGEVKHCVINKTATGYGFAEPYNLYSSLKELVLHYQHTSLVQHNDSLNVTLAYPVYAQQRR", "assay": "Human PI3Kα enzyme assay (HTRF)", "assay_type": "biochemical", "conditions": "ATP 25 uM, di-C8 PI(4,5)P2, 30 minutes at room temperature, values given only as potency bins", "text": "The catalytic subunits of PI3Ks are cloned into either pDEST8 (p110 alpha) or pDEST10 (p110beta, p110delta, and p110gamma) as N-terminal His tagged fusion proteins using the Gateway system (Invitrogen, catalog#11804-010 for pDEST8 and 11806-015 for pDEST10). The sequences are verified before recombinant protein expression using the Baculovirus Expression System with Gateway® Technology. The accession numbers for the subunits are as follows:\nThe regulatory subunits of PI3Ks are cloned into pDEST8 as un-tagged protein using the Gateway system (Catalog#11804-010). The sequences are verified before recombinant protein expression using the Baculovirus Expression System with Gateway® Technology. The accession numbers for the subunits are as following: p85 alpha (GB: BC030815) p101 (GB: AB028925)\nFor expression of the p110 complexes, the p85 (MOI of 4) is co-infected with p110 alpha, beta, and delta respectively (1 MOI) in SF9 cells and harvested at 60 hours post co-infection. P110 gamma was infected at 1 MOI and harvested at 60 hours post infection.\nFor purification, PI3Ks are purified by Ni-NTA Agarose (Qiagen #30250) followed by Mono Q 10/100 GL (Ge Healthcare #17-5167-01). VPS34 is purified by Glutathione Sepharose 4 Fast Flow (GE Healthcare #17-5132-03) followed by HiTrap Q (GE Healthcare #17-1153-01).\n1) Human PI3Kα Enzyme Assay Method\n0.5 uL compounds in DMSO are added to wells of a 384 well microtitre plate (Corning 3575). At room temperature: 10 ul PI3K reaction buffer (50 mM Hepes, 5 mM DTT, 150 mM NaCl, 10 mM beta-glycerophosphate, 10 mM MgCl2, 0.25 mM sodium cholate and 0.001% CHAPS, pH 7.00) containing ATP (25 uM, Promega) is added followed immediately by 10 ul PI3K reaction buffer containing di-C8 PI(4,5)P2 (3.5 uM, CellSignals) and PI3Kalpha (0.4875 nM, Millennium Protein Sciences Group) and the mixture is incubated with shaking at room temperature for 30 minutes. Then 5 ul PI3K stop mix (50 mM Hepes, 5 mM DTT, 150 mM NaCl, 0.01% Tween-20, 15 mM EDTA and 25 nM biotin-PI(3,4,5)P3 (Echelon) is added to quench the reaction followed immediately by addition of 5 ul HTRF detection mix (50 mM Hepes, 5 mM DTT, 150 mM NaCl, 0.01% Tween-20, 40 mM KF, 10 nM GST:GRP-1 PH domain (Millennium Protein Sciences Group), 15 nM Streptavidin-XL (CisBio) and 0.375 nM anti-GST Eu++ antibody (CisBio) at pH 7.00). The plates are then incubated for 1 hour at room temperature with shaking and then read on a BMG PheraStar Plus reader.", "data": [{"smiles": "CNc1cc(-c2cc(-c3ccc(Cl)cc3Cl)c(-c3ncc[nH]3)s2)ncn1", "note": "[Compound 84]", "values": [{"measurement": "IC50", "result": "> 1", "unit": "µM"}]}, {"smiles": "COc1ccc(CNc2cc(-c3sc(-c4nnc[nH]4)c(-c4ccc(Cl)cc4Cl)c3C#N)ccn2)c(OC)c1", "note": "[Compound 33]", "values": [{"measurement": "IC50", "result": "> 1", "unit": "µM"}]}, {"smiles": "N#Cc1c(-c2ccnc(NC(=O)c3ccccc3)c2)sc(-c2nnc[nH]2)c1-c1ccc(Cl)cc1Cl", "note": "[Compound 1]", "values": [{"measurement": "IC50", "result": "> 1", "unit": "µM"}]}, {"smiles": "CNC(=O)c1cc(-c2sc(-c3nnc[nH]3)c(-c3ccc(Cl)cc3Cl)c2C#N)ccn1", "note": "[Compound 44]", "values": [{"measurement": "IC50", "result": "> 1", "unit": "µM"}]}, {"smiles": "CNc1nccc(-c2sc(-c3ncc[nH]3)c(-c3ccc(Cl)cc3Cl)c2C#N)n1", "note": "[Compound 16]", "values": [{"measurement": "IC50", "result": "< 0.1", "unit": "µM"}]}, {"smiles": "N#Cc1c(-c2ccnc(N)c2)sc(C(N)=O)c1-c1ccc(Cl)cc1Cl", "note": "[Compound 60]", "values": [{"measurement": "IC50", "result": "0.1 to 1", "unit": "µM"}]}, {"smiles": "CS(=O)(=O)Nc1cc(-c2sc(-c3nnc[nH]3)c(-c3ccc(Cl)cc3Cl)c2C#N)ccn1", "note": "[Compound 4]", "values": [{"measurement": "IC50", "result": "> 1", "unit": "µM"}]}, {"smiles": "COc1cc(-c2sc(-c3nnc[nH]3)c(-c3ccc(Cl)cc3Cl)c2C#N)ccn1", "note": "[Compound 24]", "values": [{"measurement": "IC50", "result": "> 1", "unit": "µM"}]}, {"smiles": "N#Cc1c(-c2ccnc(N)c2)sc(-c2cnc[nH]2)c1-c1ccc(Cl)cc1Cl", "note": "[Compound 80, 2-(2-aminopyridin-4-yl)-4-(2,4-dichlorophenyl)-5-(1H-imidazol-5-yl)thiophene-3-carbonitrile]", "values": [{"measurement": "IC50", "result": "< 0.1", "unit": "µM"}]}, {"smiles": "Cc1cnc(N)nc1-c1sc(-c2nnc[nH]2)c(-c2ccc(Cl)cc2Cl)c1C#N", "note": "[Compound 8]", "values": [{"measurement": "IC50", "result": "> 1", "unit": "µM"}]}]}
